Among the data in patent US20060194860A1, “Pharmaceutical compositions containing aryl or heteroaryl azolylcarbinol compounds” (GRUENENTHAL GMBH, priority 2003, published 2006) are Ki values, retold here.

This assay concerns the target T1, 5-HT reuptake (Homo sapiens, UniProt P31645).
T1 construct: in a system with neurological tissue under physiological conditions; from tissue
As to the kind of experiment: Functional measurement of the 5-HT uptake / inhibition of serotonin uptake (tritium-marked 5-HT, neurological tissue). The settings on record: uptake of tritium-marked 5-HT in neurological tissue under physiological conditions; three independent tests. Format: biochemical. The source says: Functional Measurement of the 5-HT-Uptake or the Inhibition of Serotonin Uptake
The uptake of tritium-marked 5-HT (serotonin) as a function of the concentration of the added substance 5-{α-[2-(methylamino)ethoxy]benzyl}-1-methyl-1H-pyrazole in a system with neurological tissue under physiological conditions.

T1 sequence (P31645 whole entry): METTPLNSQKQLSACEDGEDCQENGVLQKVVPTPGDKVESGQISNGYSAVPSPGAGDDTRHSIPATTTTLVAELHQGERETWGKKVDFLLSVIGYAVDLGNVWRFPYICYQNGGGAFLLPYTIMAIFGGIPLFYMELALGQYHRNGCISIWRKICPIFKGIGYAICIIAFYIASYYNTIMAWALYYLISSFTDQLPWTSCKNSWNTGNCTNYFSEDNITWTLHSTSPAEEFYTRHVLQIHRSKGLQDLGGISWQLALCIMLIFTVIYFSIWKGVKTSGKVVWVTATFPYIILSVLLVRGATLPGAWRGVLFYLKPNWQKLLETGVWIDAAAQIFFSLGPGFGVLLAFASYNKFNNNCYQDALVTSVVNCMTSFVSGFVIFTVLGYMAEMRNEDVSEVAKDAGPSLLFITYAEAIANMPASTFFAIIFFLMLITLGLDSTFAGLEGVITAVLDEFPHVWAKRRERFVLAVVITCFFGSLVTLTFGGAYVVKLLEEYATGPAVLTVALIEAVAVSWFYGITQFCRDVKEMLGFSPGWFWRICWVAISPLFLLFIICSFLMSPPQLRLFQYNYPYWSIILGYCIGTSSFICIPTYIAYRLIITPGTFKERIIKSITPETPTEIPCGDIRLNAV

Consider `CNCCOC(c1ccccc1)c1ccnn1C` (stereo not drawn) [5-{α-[2-(methylamino)ethoxy]benzyl}-1-methyl-1H-pyrazole], for which the affinity corresponds to a Ki of 0.53 ± 0.1 µM.
